In patent US20080207719A1, “Treatment of Epilepsy” (ORION CORPORATION, priority 2003, published 2008):
“And” between values parts separate entries of the source, which are not always exact repeats. Identical values can stand only once.

Columns and labels:
[1] = tested on: Male Harlan Sprague-Dawley rats; test: Development of epilepsy after status epilepticus (SE) induced by electrical stimulation of the amygdala; chronic treatment started 1 wk after SE; type: in vivo; conditions: for Number of animals with mild (≦1 seizure/day) epilepsy, during treatment / Number of animals with severe (>1 seizure/day) epilepsy, during treatment / Number of animals with mild (≦1 seizure/day) epilepsy, All / Number of animals with severe (>1 seizure/day) epilepsy, All / Number of animals with mild (≦1 seizure/day) epilepsy, after treatment / Number of animals with severe (>1 seizure/day) epilepsy, after treatment: rats after SE; for Number of animals with mild (≦1 seizure/day) epilepsy, during treatment / Number of animals with severe (>1 seizure/day) epilepsy, during treatment: atipamezole 100 μg/kg/h s.c. minipump for 9 wk starting 1 wk after SE, DZP 20 mg/kg i.p. at 3 h after beginning of SE; for Number of animals with severe (>1 seizure/day) epilepsy, during treatment: animals/epileptic animals; for Number of animals with mild (≦1 seizure/day) epilepsy, All / Number of animals with severe (>1 seizure/day) epilepsy, All: both follow-ups (All); for Number of animals with mild (≦1 seizure/day) epilepsy, after treatment / Number of animals with severe (>1 seizure/day) epilepsy, after treatment: follow-up after the 9 wk treatment
Experimental: To mimic the clinical environment, α2-adrenoceptor antagonist treatment with atipamezole was started 1 wk after induction of status epilepticus (SE) with subcutaneous Alzet minipumps and continued for 9 wk. Two independent studies were carried out.
Male Harlan Sprague-Dawley rats (300-350 g; Netherlands) were used in this study. After implantation of electrodes, rats were housed in individual cages at a temperature of 19-21° C., with humidity at 50-60% and lights on 7.00-19.00. Standard food pellets and water were freely available.
The animals were anaesthetized with an intraperitoneal injection of sodium pentobarbital (60 mg/kg) and chloral hydrate (60 mg/kg) and inserted into a stereotaxic frame (lambda and bregma at the same horizontal level). A pair of stimulating electrodes (0.5 mm tip separation) was implanted into the lateral nucleus of the left amygdala (3.6 mm posterior, 5.0 mm lateral, and 6.5 mm ventral to bregma). One stainless steel screw was inserted into the skull above the right frontal cortex and served as cortical electrode (3 mm anterior to the bregma, 2 mm lateral to midline). Two stainless steel screws were inserted into the skull bilaterally over the cerebellum, which served as indifferent and ground electrodes. The electrodes were fixed with dental acrylate. The rats were allowed to recover from surgical operation for 14 d, after which electrical stimulation was initiated.
After discharge threshold was assessed by stimulating the amygdala with a one-second train of one-msec bipolar square-wave pulses (60 Hz, 50-400 μA peak to peak). Only those rats in which after discharges could be induced at 400 μA or at lower current level were included in the study.
To induce SE, the amygdala was stimulated repeatedly at 500 msec intervals with a train of pulses lasting 100 msec (1 msec 60 Hz bipolar pulses at 400 μA peak to peak). […] Once the criterion of SE was achieved, no further stimulation was given. After 3 h, SE was terminated by injecting diazepam 20 mg/kg (i.p.).
Vehicle (0.9% saline, Natrosteril 9 mg/ml, Baxter, Vantaa, Finland) was administered via subcutaneous Alzet minipumps with a pumping rate of 9.15 μl/h in 1-wk and 2.61 μl/h in 8-wk pumps starting 1 wk after stimulation. Minipumps were implanted subcutaneously to the back between the scapulae according to the instructions provided by manufacturer. For implantation, animals were anesthetized with an intraperitoneal injection of sodium pentobarbital (60 mg/kg) and chloral hydrate (60 mg/kg).
Diazepam was administered at 3 h after the beginning of SE (20 mg/kg, i.p.). Atipamezole treatment was started 1 wk after SE. Compound was administered with subcutaneous Alzet osmotic minipumps and continued for 9 wk. Atipamezole was dissolved into sterile 0.9% NaCl. The concentration of atipamezole was adjusted according to the weight of the rat and pumping rate to obtain a constant flow-rate of 100 μg/kg/h.
• DZP (diazepam)+vehicle (n=11): Rats with SE treated with DZP (20 mg/kg, i.p.) at 3 h after the beginning of SE. Chronic treatment with vehicle (0.9% NaCl, subcutaneous Alzet minipumps) for 9 wk starting 1 wk after SE. • DZP+atipamezole (n=7): Rats with SE treated with DZP (20 mg/kg, i.p.) at 3 h after the beginning of SE. Chronic treatment with atipamezole (100 μg/kg/h, subcutaneous Alzet minipumps) for 9 wk starting 1 wk after SE.
Controls (n=9): Operated, non-stimulated and non-treated controls.
Ø+vehicle (n=11): No treatment at 3 h after the beginning of SE. Chronic treatment with vehicle (0.9% NaCl in subcutaneous Alzet minipump) for 9 wk starting 1 wk after SE.
DZP+vehicle (n=10): Diazepam treatment (20 mg/kg, i.p.) at 3 h after the beginning of SE. Chronic treatment with vehicle (0.9% NaCl in subcutaneous Alzet minipump) for 9 wk starting 1 wk after SE.
Ø+atipamezole (n=10). No treatment at 3 h after the beginning of SE. Chronic treatment with atipamezole (100 μg/kg/h, subcutaneous Alzet minipumps) for 9 wk starting 1 wk after SE.
DZP+atipamezole (n=12). […]

cortical excitability = conditions: oral administration, humans; Plewnia C et al., Neurosci Lett 2001; cited from earlier work
alpha2-adrenoceptor = conditions: background statement, no species differences (human and rodent); cited from earlier work
kainate-induced seizures = conditions: acute administration; Halonen T. et al., Brain Res 1995; cited from earlier work
[2] = listed as Ø + atipamezole, hydrochloride
[3] = listed as Ø/DZP + atipamezole, hydrochloride

CN1C(=O)CN=C(c2ccccc2)c2cc(Cl)ccc21 [DZP + vehicle]
Rats with >1 seizure/day ([1]; data combined from the two studies): 50%
Number of animals with mild (≦1 seizure/day) epilepsy, during treatment [1]: 1/4 and 6/10
Number of animals with severe (>1 seizure/day) epilepsy, during treatment [1]: 3/4 and 4/10
Number of animals with mild (≦1 seizure/day) epilepsy, All [1]: 2/4 and 5/10
Number of animals with severe (>1 seizure/day) epilepsy, All [1]: 2/4 and 5/10
Number of animals with mild (≦1 seizure/day) epilepsy, after treatment [1]: 1/3 and 5/9
Number of animals with severe (>1 seizure/day) epilepsy, after treatment [1]: 2/3 and 4/9

COC(=O)[C@@H]1[C@H]2C[C@H]3c4[nH]c5ccccc5c4CCN3C[C@@H]2CC[C@@H]1O [yohimbine]
Cortical excitability induced by transcranial magnetic stimulation (cortical excitability): increased cortical excitability

CCC1(c2c[nH]cn2)Cc2ccccc2C1.Cl [atipamezole, 4-(2-ethyl-2,3-dihydro-1H-inden-2-yl)-1H-imidazole hydrochloride]
alpha2/alpha1-selectivity ratio (alpha2-adrenoceptor): high
Effect on kainate-induced seizures (kainate-induced seizures): proconvulsant effect
Number of animals with severe (>1 seizure/day) epilepsy, during treatment [1, 2]: 1/8
Number of animals with severe (>1 seizure/day) epilepsy, during treatment [1, 3]: 1/20
Number of animals with mild (≦1 seizure/day) epilepsy, during treatment [1, 2]: 7/8
Number of animals with mild (≦1 seizure/day) epilepsy, during treatment [1, 3]: 19/20
Number of animals with mild (≦1 seizure/day) epilepsy, All [1, 2]: 7/8
Number of animals with severe (>1 seizure/day) epilepsy, All [1, 2]: 1/8
Number of animals with mild (≦1 seizure/day) epilepsy, All [1, 3]: 21/22
Number of animals with severe (>1 seizure/day) epilepsy, All [1, 3]: 1/22
Number of animals with mild (≦1 seizure/day) epilepsy, after treatment [1, 2]: 6/7
Number of animals with severe (>1 seizure/day) epilepsy, after treatment [1, 2]: 1/7
Number of animals with mild (≦1 seizure/day) epilepsy, after treatment [1, 3]: 19/20
Number of animals with severe (>1 seizure/day) epilepsy, after treatment [1, 3]: 1/20
Effect on epileptogenesis ([1]; summary statement, epilepsy that develops is milder and can be non-progressive): clear disease-modifying effect on epileptogenesis
